From ChEMBL document CHEMBL4825673, “Total and Semisyntheses of Polymyxin Analogues with 2-Thr or 10-Thr Modifications to Decipher the Structure-Activity Relationship and Improve the Antibacterial Activity” (J Med Chem, 2021)
Values after ≈ are worked out from the molar mass of the structure shown.

Test system: Pseudomonas aeruginosa
Test: Antibacterial activity against Pseudomonas aeruginosa PAO1 assessed as inhibition of bacterial growth incubated for 24 hrs by broth microdilution method
Assay type: functional
Details: read-out: MIC100

| MIC | Structure (SMILES) |
| --- | --- |
| 2 µg/mL (≈ 1.5 µM) | CC(C)CCCCC(=O)N[C@@H](CCN)C(=O)N[C@H](C(=O)N[C@@H](CCN)C(=O)N[C@H]1CCNC(=O)[C@H]([C@@H](C)OC(=O)[C@H](C)N)NC(=O)[C@H](CCN)NC(=O)[C@H](CCN)NC(=O)[C@H](CC(C)C)NC(=O)[C@@H](Cc2ccccc2)NC(=O)[C@H](CCN)NC1=O)[C@@H](C)OC(=O)[C@H](C)N |
| 2 µg/mL (≈ 1.52 µM) | CC[C@H](C)CCCCC(=O)N[C@@H](CCN)C(=O)N[C@H](C(=O)N[C@@H](CCN)C(=O)N[C@H]1CCNC(=O)[C@H]([C@@H](C)O)NC(=O)[C@H](CCN)NC(=O)[C@H](CCN)NC(=O)[C@H](CC(C)C)NC(=O)[C@@H](Cc2ccccc2)NC(=O)[C@H](CCN)NC1=O)[C@@H](C)OC(=O)[C@@H](N)[C@@H](C)CC |
| 2 µg/mL (≈ 1.43 µM) | CC[C@H](C)CCCCC(=O)N[C@@H](CCN)C(=O)N[C@H](C(=O)N[C@@H](CCN)C(=O)N[C@H]1CCNC(=O)[C@H]([C@@H](C)OC(=O)[C@@H]2CCCN2)NC(=O)[C@H](CCN)NC(=O)[C@H](CCN)NC(=O)[C@H](CC(C)C)NC(=O)[C@@H](Cc2ccccc2)NC(=O)[C@H](CCN)NC1=O)[C@@H](C)OC(=O)[C@@H]1CCCN1 |
| 64 µg/mL (≈ 55.9 µM) | CCCCCCCC(=O)N[C@@H](CCN)C(=O)NCC(=O)N[C@@H](CCN)C(=O)N[C@H]1CCNC(=O)[C@H]([C@@H](C)O)NC(=O)[C@H](CCN)NC(=O)[C@H](CCN)NC(=O)[C@H](CC(C)C)NC(=O)[C@@H](Cc2ccccc2)NC(=O)[C@H](CCN)NC1=O |
| 2 µg/mL (≈ 1.53 µM) | CC[C@H](C)CCCCC(=O)N[C@@H](CCN)C(=O)N[C@H](C(=O)N[C@@H](CCN)C(=O)N[C@H]1CCNC(=O)[C@H]([C@@H](C)O)NC(=O)[C@H](CCN)NC(=O)[C@H](CCN)NC(=O)[C@H](CC(C)C)NC(=O)[C@@H](Cc2ccccc2)NC(=O)[C@H](CCN)NC1=O)[C@@H](C)OC(=O)[C@@H](N)[C@@H](C)O |
| 2 µg/mL (≈ 1.54 µM) | CC[C@H](C)[C@H](N)C(=O)O[C@H](C)[C@H](NC(=O)[C@H](CCN)NC(=O)CCCCC(C)C)C(=O)N[C@@H](CCN)C(=O)N[C@H]1CCNC(=O)[C@H]([C@@H](C)O)NC(=O)[C@H](CCN)NC(=O)[C@H](CCN)NC(=O)[C@H](CC(C)C)NC(=O)[C@@H](Cc2ccccc2)NC(=O)[C@H](CCN)NC1=O |
| 8 µg/mL (≈ 5.91 µM) | CC(NCC[C@H](NC(=O)[C@H](CCN)NC(=O)CCCCC(C)C)C(=O)N[C@@H](CCN)C(=O)N[C@H]1CCNC(=O)[C@H]([C@@H](C)O)NC(=O)[C@H](CCN)NC(=O)[C@H](CCN)NC(=O)[C@H](CC(C)C)NC(=O)[C@@H](Cc2ccccc2)NC(=O)[C@H](CCN)NC1=O)=C1C(=O)CC(C)(C)CC1=O |
| 4 µg/mL (≈ 3.14 µM) | CC[C@H](C)CCCCC(=O)N[C@@H](CCN)C(=O)N[C@H](C(=O)N[C@@H](CCN)C(=O)N[C@H]1CCNC(=O)[C@H]([C@@H](C)O)NC(=O)[C@H](CCN)NC(=O)[C@H](CCN)NC(=O)[C@H](CC(C)C)NC(=O)[C@@H](Cc2ccccc2)NC(=O)[C@H](CCN)NC1=O)[C@@H](C)OC(=O)[C@H](C)N |
| 2 µg/mL (≈ 1.54 µM) | CC[C@H](C)CCCCC(=O)N[C@@H](CCN)C(=O)N[C@H](C(=O)N[C@@H](CCN)C(=O)N[C@H]1CCNC(=O)[C@H]([C@@H](C)O)NC(=O)[C@H](CCN)NC(=O)[C@H](CCN)NC(=O)[C@H](CC(C)C)NC(=O)[C@@H](Cc2ccccc2)NC(=O)[C@H](CCN)NC1=O)[C@@H](C)OC(=O)[C@@H](N)C(C)C |
| 128 µg/mL (≈ 108 µM) | CC(C)CCCCC(=O)N[C@@H](CCN)C(=O)N[C@@H](CCN)C(=O)N[C@@H](CCN)C(=O)N[C@H]1CCNC(=O)[C@H]([C@@H](C)O)NC(=O)[C@H](CCN)NC(=O)[C@H](CCN)NC(=O)[C@H](CC(C)C)NC(=O)[C@@H](Cc2ccccc2)NC(=O)[C@H](CCN)NC1=O |
| 2 µg/mL (≈ 1.7 µM) | CCCCCCCC(=O)N[C@@H](CCN)C(=O)N[C@@H](CO)C(=O)N[C@@H](CCN)C(=O)N[C@H]1CCNC(=O)[C@H]([C@@H](C)O)NC(=O)[C@H](CCN)NC(=O)[C@H](CCN)NC(=O)[C@H](CC(C)C)NC(=O)[C@@H](Cc2ccccc2)NC(=O)[C@H](CCN)NC1=O |
| 2 µg/mL (≈ 1.53 µM) | CC[C@H](C)CCCCC(=O)N[C@@H](CCN)C(=O)N[C@H](C(=O)N[C@@H](CCN)C(=O)N[C@H]1CCNC(=O)[C@H]([C@@H](C)O)NC(=O)[C@H](CCN)NC(=O)[C@H](CCN)NC(=O)[C@H](CC(C)C)NC(=O)[C@@H](Cc2ccccc2)NC(=O)[C@H](CCN)NC1=O)[C@@H](C)OC(=O)[C@@H](N)CS |
| 2 µg/mL (≈ 1.45 µM) | CC(C)CCCCC(=O)N[C@@H](CCN)C(=O)N[C@H](C(=O)N[C@@H](CCN)C(=O)N[C@H]1CCNC(=O)[C@H]([C@@H](C)OC(=O)[C@@H]2CCCN2)NC(=O)[C@H](CCN)NC(=O)[C@H](CCN)NC(=O)[C@H](CC(C)C)NC(=O)[C@@H](Cc2ccccc2)NC(=O)[C@H](CCN)NC1=O)[C@@H](C)OC(=O)[C@@H]1CCCN1 |
| 4 µg/mL (≈ 3.28 µM) | CCCCCCCC(=O)N[C@@H](CCN)C(=O)N[C@H](C(=O)N[C@@H](CCN)C(=O)N[C@H]1CCNC(=O)[C@H](CCSC)NC(=O)[C@H](CCN)NC(=O)[C@H](CCN)NC(=O)[C@H](CC(C)C)NC(=O)[C@@H](Cc2ccccc2)NC(=O)[C@H](CCN)NC1=O)[C@@H](C)O |
| 2 µg/mL (≈ 1.55 µM) | CC(C)CCCCC(=O)N[C@@H](CCN)C(=O)N[C@H](C(=O)N[C@@H](CCN)C(=O)N[C@H]1CCNC(=O)[C@H]([C@@H](C)O)NC(=O)[C@H](CCN)NC(=O)[C@H](CCN)NC(=O)[C@H](CC(C)C)NC(=O)[C@@H](Cc2ccccc2)NC(=O)[C@H](CCN)NC1=O)[C@@H](C)OC(=O)[C@@H](N)[C@@H](C)O |
| 2 µg/mL (≈ 1.49 µM) | CC[C@H](C)CCCCC(=O)N[C@@H](CCN)C(=O)N[C@H](C(=O)N[C@@H](CCN)C(=O)N[C@H]1CCNC(=O)[C@H]([C@@H](C)OC(=O)[C@H](C)N)NC(=O)[C@H](CCN)NC(=O)[C@H](CCN)NC(=O)[C@H](CC(C)C)NC(=O)[C@@H](Cc2ccccc2)NC(=O)[C@H](CCN)NC1=O)[C@@H](C)OC(=O)[C@H](C)N |
| 32 µg/mL (≈ 26.1 µM) | CC(N[C@@H](CCN)C(=O)N[C@H](C(=O)N[C@@H](CCN)C(=O)N[C@H]1CCNC(=O)[C@H]([C@@H](C)O)NC(=O)[C@H](CCN)NC(=O)[C@H](CCN)NC(=O)[C@H](CC(C)C)NC(=O)[C@@H](Cc2ccccc2)NC(=O)[C@H](CCN)NC1=O)[C@@H](C)O)=C1C(=O)CC(C)(C)CC1=O |
| 64 µg/mL (≈ 53.2 µM) | CCCCCCCC(=O)N[C@@H](CCN)C(=O)N[C@H](C(=O)N[C@@H](CCN)C(=O)N[C@H]1CCNC(=O)[C@H](CC(=O)O)NC(=O)[C@H](CCN)NC(=O)[C@H](CCN)NC(=O)[C@H](CC(C)C)NC(=O)[C@@H](Cc2ccccc2)NC(=O)[C@H](CCN)NC1=O)[C@@H](C)O |
| 2 µg/mL (≈ 1.52 µM) | CC[C@H](C)CCCCC(=O)N[C@@H](CCN)C(=O)N[C@H](C(=O)N[C@@H](CCN)C(=O)N[C@H]1CCNC(=O)[C@H]([C@@H](C)OC(=O)CN)NC(=O)[C@H](CCN)NC(=O)[C@H](CCN)NC(=O)[C@H](CC(C)C)NC(=O)[C@@H](Cc2ccccc2)NC(=O)[C@H](CCN)NC1=O)[C@@H](C)OC(=O)CN |
| 2 µg/mL (≈ 1.54 µM) | CC[C@H](C)CCCCC(=O)N[C@@H](CCN)C(=O)N[C@H](C(=O)N[C@@H](CCN)C(=O)N[C@H]1CCNC(=O)[C@H]([C@@H](C)O)NC(=O)[C@H](CCN)NC(=O)[C@H](CCN)NC(=O)[C@H](CC(C)C)NC(=O)[C@@H](Cc2ccccc2)NC(=O)[C@H](CCN)NC1=O)[C@@H](C)OC(=O)[C@@H]1CCCN1 |
| 4 µg/mL (≈ 2.82 µM) | CC(C)CCCCC(=O)N[C@@H](CCN)C(=O)N[C@H](C(=O)N[C@@H](CCN)C(=O)N[C@H]1CCNC(=O)[C@H]([C@@H](C)OC(=O)[C@@H](N)CC(=O)O)NC(=O)[C@H](CCN)NC(=O)[C@H](CCN)NC(=O)[C@H](CC(C)C)NC(=O)[C@@H](Cc2ccccc2)NC(=O)[C@H](CCN)NC1=O)[C@@H](C)OC(=O)[C@@H](N)CC(=O)O |
| 32 µg/mL (≈ 23.1 µM) | CC(C)C[C@@H]1NC(=O)[C@@H](Cc2ccccc2)NC(=O)[C@H](CCN)NC(=O)[C@@H](NC(=O)[C@H](CCN)NC(=O)[C@@H](NC(=O)[C@H](CCN)NC(=O)CCCCCCCN(Cc2ccccn2)Cc2ccccn2)[C@@H](C)O)CCNC(=O)[C@H]([C@@H](C)O)NC(=O)[C@H](CCN)NC(=O)[C@H](CCN)NC1=O |
| 128 µg/mL (≈ 105 µM) | CC(C)CCCCC(=O)N[C@@H](CCN)C(=O)N[C@@H](CCC(N)=O)C(=O)N[C@@H](CCN)C(=O)N[C@H]1CCNC(=O)[C@H]([C@@H](C)O)NC(=O)[C@H](CCN)NC(=O)[C@H](CCN)NC(=O)[C@H](CC(C)C)NC(=O)[C@@H](Cc2ccccc2)NC(=O)[C@H](CCN)NC1=O |
| 4 µg/mL (≈ 3.04 µM) | CC[C@H](C)CCCCC(=O)N[C@@H](CCN)C(=O)N[C@H](C(=O)N[C@@H](CCN)C(=O)N[C@H]1CCNC(=O)[C@H]([C@@H](C)O)NC(=O)[C@H](CCN)NC(=O)[C@H](CCN)NC(=O)[C@H](CC(C)C)NC(=O)[C@@H](Cc2ccccc2)NC(=O)[C@H](CCN)NC1=O)[C@@H](C)OC(=O)[C@@H](N)CC(C)C |
| 64 µg/mL (≈ 53.2 µM) | CC(C)CCCCC(=O)N[C@@H](CCN)C(=O)N[C@@H](CC(=O)O)C(=O)N[C@@H](CCN)C(=O)N[C@H]1CCNC(=O)[C@H]([C@@H](C)O)NC(=O)[C@H](CCN)NC(=O)[C@H](CCN)NC(=O)[C@H](CC(C)C)NC(=O)[C@@H](Cc2ccccc2)NC(=O)[C@H](CCN)NC1=O |
| 2 µg/mL (≈ 1.49 µM) | CC[C@H](C)CCCCC(=O)N[C@@H](CCN)C(=O)N[C@H](C(=O)N[C@@H](CCN)C(=O)N[C@H]1CCNC(=O)[C@H]([C@@H](C)O)NC(=O)[C@H](CCN)NC(=O)[C@H](CCN)NC(=O)[C@H](CC(C)C)NC(=O)[C@@H](Cc2ccccc2)NC(=O)[C@H](CCN)NC1=O)[C@@H](C)OC(=O)[C@@H](N)Cc1c[nH]cn1 |
| 1 µg/mL (≈ 0.775 µM) | CC[C@H](C)CCCCC(=O)N[C@@H](CCN)C(=O)N[C@H](C(=O)N[C@@H](CCN)C(=O)N[C@H]1CCNC(=O)[C@H]([C@@H](C)O)NC(=O)[C@H](CCN)NC(=O)[C@H](CCN)NC(=O)[C@H](CC(C)C)NC(=O)[C@@H](Cc2ccccc2)NC(=O)[C@H](CCN)NC1=O)[C@@H](C)OC(=O)[C@@H](N)CO |
| 2 µg/mL (≈ 1.44 µM) | CC[C@H](C)CCCCC(=O)N[C@@H](CCN)C(=O)N[C@H](C(=O)N[C@@H](CCN)C(=O)N[C@H]1CCNC(=O)[C@H]([C@@H](C)O)NC(=O)[C@H](CCN)NC(=O)[C@H](CCN)NC(=O)[C@H](CC(C)C)NC(=O)[C@@H](Cc2ccccc2)NC(=O)[C@H](CCN)NC1=O)[C@@H](C)OC(=O)[C@@H](N)Cc1c[nH]c2ccccc12 |
| 8 µg/mL (≈ 6.71 µM) | CCCCCCCC(=O)N[C@@H](CCN)C(=O)N[C@@H](CS)C(=O)N[C@@H](CCN)C(=O)N[C@H]1CCNC(=O)[C@H]([C@@H](C)O)NC(=O)[C@H](CCN)NC(=O)[C@H](CCN)NC(=O)[C@H](CC(C)C)NC(=O)[C@@H](Cc2ccccc2)NC(=O)[C@H](CCN)NC1=O |
